Laboratory results as given in PMC10051656, “Phenylpyrazolone-1,2,3-triazole Hybrids as Potent Antiviral Agents with Promising SARS-CoV-2 Main Protease Inhibition Potential” (Pharmaceuticals, 2023).
Several values for one entry are separate records, joined by “and”; a condition that tells them apart may be missing. Identical values can stand only once. Like-named read-outs stand apart in the source and are kept apart here.

Experiments:
[1] = MTT cell viability / cytotoxicity in Vero E6 cells; set-up: cytotoxicity to Vero E6 cells: dose or concentration left out as unconfirmed; details: African green monkey
SARS-CoV-2 Main protease = SARS-CoV-2 Main protease (Severe acute respiratory syndrome coronavirus 2, UniProt P0DTD1); test: biochemical
SARS-CoV-2 = test: microbe, parasite or virus in culture; format: cell-based; details: for API Value: ratio of 10 μM inhibition % of tested drug to the reference remdesivir
[2] = tested on: Main protease of MERS-CoV; details: cited from earlier work
SARS-CoV Main protease = details: cited from earlier work
Vero E6 cells = test: MTT cell viability / cytotoxicity in Vero E6 cells; set-up: cytotoxicity to Vero E6 cells: dose or concentration left out as unconfirmed; details: for IC50: read-out: Cytotoxicity (Vero E6) (IC50), Vero E6 cells, MTT test
[3] = Cytotoxicity (Vero E6) (IC50, μM), Vero E6 cells, MTT test
[4] = triplicate readings with SE, read-out: IC50 (μM) ± SE
[5] = Severe acute respiratory syndrome coronavirus 2, Vero C1008, 1 μM, infected Vero E6 cells, MOI 0.01, read-out: Anti-SARS-CoV-2 Effect Assay (%) 1 μM
[6] = Severe acute respiratory syndrome coronavirus 2, Vero C1008, 10 μM, infected Vero E6 cells, MOI 0.01, read-out: Anti-SARS-CoV-2 Effect Assay (%) 10 μM

Structure (SMILES) | IC50 [1, 3] [µM] | IC50 (SARS-CoV-2 Main protease; [4]) | inhibition at 1 µM (SARS-CoV-2; [5]) [%] | inhibition at 10 µM (SARS-CoV-2; [6]) [%] | API Value (SARS-CoV-2) | further results
CC1=NN(c2ccc(Cl)cc2)C(=O)/C1=C\c1ccc(OCc2cn(CC(=O)Nc3ccc([N+](=O)[O-])cc3)nn2)cc1 [6l, (Z)-2-(4-((4-((1-(4-Chlorophenyl)-3-methyl-5-oxo-1H-pyrazol-4(5H)-ylidene)methyl)phenoxy)methyl)-1H-1,2,3-triazol-1-yl)-N-(4-nitrophenyl)acetamide] | 32.6 ± 2.5 | 135 ± 6.5 µM | 8.84 ± 0.11 | 46.91 ± 0.28 |  | 
O=C(O)c1cccc(N2N=C(c3ccccc3)/C(=C/c3ccc(-c4ccccc4)o3)C2=O)c1 [compound 9] |  |  |  |  |  | IC50 [2]: 5.8 µM; IC50 (SARS-CoV Main protease): 6.4 µM
CC1=NN(c2ccc(Cl)cc2)C(=O)/C1=C\c1ccc(OCc2cn(-c3ccc(Cl)cc3)nn2)cc1 [6f] | 51.4 ± 3.9 | 144 ± 6.9 µM | 1.54 ± 0.089 | 30.2 ± 0.31 | 0.31 | 
O=C(O)c1ccc(/C=C2\C(=O)N(c3ccc(F)cc3)N=C2c2ccccc2)cc1 [compound 8] |  |  |  |  |  | IC50 (SARS-CoV Main protease): 6.8 µM
CC1=NN(c2ccc(Cl)cc2)C(=O)/C1=C\c1ccc(OCc2cn(CC(=O)NCc3ccc(Cl)cc3)nn2)cc1 [6n, (Z)-N-(4-Chlorobenzyl)-2-(4-((4-((1-(4-chlorophenyl)-3-methyl-5-oxo-1H-pyrazol-4(5H)-ylidene)methyl)phenoxy)methyl)-1H-1,2,3-triazol-1-yl)acetamide] | 23.1 ± 1.8 | 86.6 ± 4.1 µM | 3.73 ± 0.01 | 51.13 ± 0.14 | 0.55 | 
CC(=O)c1ccc(-n2cc(COc3ccc(/C=C4\C(=O)N(c5ccc(Cl)cc5)N=C4C)cc3)nn2)cc1 [6c] | 92.1 ± 7 | 81.1 ± 3.9 µM | 4.46 ± 0.034 | 24.5 ± 0.37 | 0.26 | 
CC1=NN(c2ccccc2)C(=O)/C1=C\c1ccc(OCc2cn(CC(=O)Nc3ccc(F)cc3)nn2)cc1 [6k, (Z)-N-(4-Fluorophenyl)-2-(4-((4-((3-methyl-5-oxo-1-phenyl-1H-pyrazol-4(5H)-ylidene)methyl)phenoxy)methyl)-1H-1,2,3-triazol-1-yl)acetamide] |  | > 200 µM |  |  |  | IC50 (SARS-CoV-2 Main protease; unit inferred, read-out: IC50 (numbers printed in the chart of Figure 5)): 200 µM; melting point: 201 to 203 °C
CC1=NN(c2ccc(Cl)cc2)C(=O)/C1=C\c1ccc(OCc2cn(-c3ccc([N+](=O)[O-])cc3)nn2)cc1 [6e] | 66.4 ± 5.1 | 30.1 ± 1.4 µM | 17.4 ± 0.19 | 49.5 ± 1.01 | 0.53 | 
CCC(CC)COC(=O)[C@H](C)N[P@](=O)(OC[C@H]1O[C@@](C#N)(c2ccc3c(N)ncnn23)[C@H](O)[C@@H]1O)Oc1ccccc1 [REM, remdesivir, reference compound] |  |  |  |  | 1.0 | IC50 [1]: 61.8 ± 4.7 µM; cytotoxicity to Vero E6 cells (Vero E6 cells; positive control): no cytotoxicity; inhibition at 1 µM (SARS-CoV-2; Severe acute respiratory syndrome coronavirus 2, Vero C1008, read-out: Anti-SARS-CoV-2 Effect Assay (%) 1 μM): 89.6 ± 0.98%; inhibition at 10 µM (SARS-CoV-2; Severe acute respiratory syndrome coronavirus 2, Vero C1008, read-out: Anti-SARS-CoV-2 Effect Assay (%) 10 μM): 93.3 ± 1.17%
CC1=NN(c2ccc(Cl)cc2)C(=O)/C1=C\c1ccc(OCc2cn(CC(=O)Nc3ccc(F)cc3)nn2)cc1 [6j, (Z)-2-(4-((4-((1-(4-Chlorophenyl)-3-methyl-5-oxo-1H-pyrazol-4(5H)-ylidene)methyl)phenoxy)methyl)-1H-1,2,3-triazol-1-yl)-N-(4-fluorophenyl)acetamide] | 156 ± 12 | 49.4 ± 2.4 µM | 16.16 ± 0.03 | 39.65 ± 0.25 | 0.46 | 
CC1=NN(c2ccc(Cl)cc2)C(=O)/C1=C\c1ccc(OCc2cn(CC(=O)NCc3ccc(F)cc3)nn2)cc1 [6q, (Z)-2-(4-((4-((1-(4-Chlorophenyl)-3-methyl-5-oxo-1H-pyrazol-4(5H)-ylidene)methyl)phenoxy)methyl)-1H-1,2,3-triazol-1-yl)-N-(4-fluorobenzyl)acetamide] | > 20 | 3.16 µM and 7.55 µM | 12.9 ± 0.03 | 79 | 0.84 | IC50 (Vero E6 cells): 35.3 ± 2.7 µM
CC1=NN(c2ccc(Cl)cc2)C(=O)/C1=C\c1ccc(OCc2cn(-c3ccc(C(=O)O)cc3)nn2)cc1 [6a] | 17.1 ± 13 | 76 µM and 76.9 µM | 10.8 ± 0.06 | 19.3 | 0.21 | Anti-SARS-CoV-2 Effect Assay (%) 10 μM (SARS-CoV-2; 10 μM, infected Vero E6 cells, MOI 0.01): 19.27 ± 0.51%
CC1=NN(c2ccc(Cl)cc2)C(=O)/C1=C\c1ccc(OCc2cn(-c3ccc(F)cc3)nn2)cc1 [6d] | 172 ± 13 | 42.4 ± 3.8 µM | 7.38 ± 0.007 | 55.47 ± 0.27 | 0.60 | 
CC(C)CC(NC(=O)OCc1ccccc1)C(=O)NC(CC1CCNC1=O)C(O)S(=O)(=O)O (centres unmarked) [GC-376, reference compound] | 41.2 ± 1.1 |  | 78.96 ± 0.67 | 92.9 ± 1.15 | 0.99 | 
COc1ccc(CNC(=O)Cn2cc(COc3ccc(/C=C4\C(=O)N(c5ccc(Cl)cc5)N=C4C)cc3)nn2)cc1 [6p, (Z)-2-(4-((4-((1-(4-Chlorophenyl)-3-methyl-5-oxo-1H-pyrazol-4(5H)-ylidene)methyl)phenoxy)methyl)-1H-1,2,3-triazol-1-yl)-N-(4-methoxybenzyl)acetamide] | 20.1 ± 1.5 | 23.7 ± 1.1 µM | 9.5 ± 0.11 | ~50 | 0.54 | 
CC1=NN(c2ccc(Cl)cc2)C(=O)/C1=C\c1ccc(OCc2cn(CC(=O)NCc3ccc(C)cc3)nn2)cc1 [6o, (Z)-2-(4-((4-((1-(4-Chlorophenyl)-3-methyl-5-oxo-1H-pyrazol-4(5H)-ylidene)methyl)phenoxy)methyl)-1H-1,2,3-triazol-1-yl)-N-(4-methylbenzyl)acetamide] | 262 ± 20 | 43.3 ± 2.1 µM | 12.23 ± 0.1 | 54.1 ± 0.61 | 0.56 | 
CC1=NN(c2ccc(Cl)cc2)C(=O)/C1=C\c1ccc(OCc2cn(-c3ccc(C)c(F)c3)nn2)cc1 [6h] | 33.7 ± 2.6 | 5.08 ± 3.5 µM | 15.5 ± 0.003 | 64.2 | 0.66 | 
CC1=NN(c2ccc(Cl)cc2)C(=O)/C1=C\c1ccc(OCc2cn(-c3ccc(Cl)c(Cl)c3)nn2)cc1 [6g] | 235 ± 18 | 200 ± 9.5 µM | 12.23 ± 0.05 | 38.74 ± 0.3 | 0.41 | 
Cc1cccc(C)c1OCC(=O)N[C@@H](Cc1ccccc1)[C@@H](O)C[C@H](Cc1ccccc1)NC(=O)[C@H](C(C)C)N1CCCNC1=O [lopinavir, reference compound] |  | 82.2 µM |  |  |  | 
N#Cc1ccc(N2N=C(c3ccccc3)/C(=C/c3ccc(C(=O)O)cc3)C2=O)cc1 [compound 7] |  |  |  |  |  | IC50 (SARS-CoV Main protease): 5.5 µM
CC(C)(C)c1ccc(N2N=C(c3ccccc3)/C(=C/c3ccc(-c4cc(Cl)ccc4C(=O)O)o3)C2=O)cc1 [compound 10] |  |  |  |  |  | IC50 [2]: 7.4 µM; IC50 (SARS-CoV Main protease): 5.8 µM
CC1=NN(c2ccc(Cl)cc2)C(=O)/C1=C\c1ccc(OCc2cn(CC(=O)Nc3ccc(C(=O)O)cc3)nn2)cc1 [6i] | 22.1 | 3.17 µM and 7.55 µM and 3.1 µM and 3.16 µM | 21.86 ± 0.09 | 64 | 0.67 | IC50 (Vero E6 cells): 21.1 ± 1.6 µM
CC1=NN(c2ccccc2)C(=O)/C1=C\c1ccc(OCc2cn(-c3ccc(C(=O)O)cc3)nn2)cc1 [6b] |  | > 200 µM |  |  |  | melting point: 205 to 206 °C
CC1=NN(c2ccc(Cl)cc2)C(=O)/C1=C\c1ccc(OCc2cn(CC(=O)Nc3ccc(C)c(F)c3)nn2)cc1 [6m, (Z)-2-(4-((4-((1-(4-Chlorophenyl)-3-methyl-5-oxo-1H-pyrazol-4(5H)-ylidene)methyl)phenoxy)methyl)-1H-1,2,3-triazol-1-yl)-N-(3-fluoro-4-methylphenyl)acetamide] | 189 ± 14 | 25.7 ± 0.4 µM | 9.55 ± 0.02 | ~50 | 0.49 | 
